Type in all cases: cell-based
Assay [1] has as its system Escherichia coli, ATCC 25922. The conditions noted are these: non-clinical isolate; 37° C.; 3×10^6 cells per ml. Here is the method: (§1) The antibacterial activities of the different peptides were determined by continuous monitoring of bacterial growth with a Bioscreen C microbiology reader (Labsystems Oy, Helsinki, Finland). The test was performed in 100-well flat-bottomed honeycomb plates, in which 50 μl of test fractions were incubated with 50 μl of a suspension of an actively growing culture of bacteria diluted in Mueller Hinton medium to a starting concentration of 3×10^4 cells per ml. The Gram-negative bacteria, Listonella (Vibrio) anguillarum, serotype O2 (FT 1801, a fish pathogenic strain), Pseudomonas aeruginosa and E. coli (ATCC 25922), and the Gram-positive bacteria, C. glutamicum (ATCC 13032) and S. aureus (ATCC 9144), were chosen as test bacteria. The growth chamber was maintained at either 20 or 37° C. during the incubation period. The absorbance was measured at 2 h intervals for 48 h by a turbidometric method with vertical light photometry and a wide band filter (420-580 nm), which is more insensitive to color change in the sample compared to single wavelength detection. Antibacterial activity was determined when the optical density (OD) of the growth control (bacteria plus water) reached an absorbance of 0.3-0.4. Fractions were regarded as active when the OD was less than 50% of the growth control. Polymyxin B (Sigma, St. Louis, Mo., USA), Lactoferricin B, Cecropin P1 and Hyalophora cecropia Cecropin B were used as reference.
(§2) The antimicrobial molecules were also tested against drug resistant clinical isolates, such as the commonly encountered multi-resistant human pathogen S. aureus (MRSA) K15-64 and the glycopeptide (vancomycin)-resistant Enterococccus faecium (GREF) K9-28. The non-clinical isolates Escherichia coli (ATCC 25922), Pseudomonas aeruginosa (ATCC 27853), Corynebacterium glutamicum (ATCC 13032), and Staphylococcus aureus (ATCC 9144) were also tested for comparison. Serial dilutions of synthetic peptides were made in double distilled water and tested according to the method described above. However, in these experiments the starting concentration of bacteria were 3×10^6 cells per ml and the temperature in the growth chamber was 37° C. Polymyxin B was used as positive control for the Gram-negative bacteria.

Assay [2] deals with Pseudomonas aeruginosa ATCC 27853. The conditions noted are these: non-clinical isolate; 37° C.; 3×10^6 cells per ml. As to the method:
as §1, §2

Assay [3] deals with murine B lymphoma (reticulum cell sarcoma) cell line A20. The note with it: 4 h. Here is the method: The cytotoxic effects of the peptides on different human tumour cells were measured using the MTT colorimetric assay (Mosmann, 1983). MIT (3-(4-5-dimethylthiazol-2-yl)-2,5-diphenyl tetrazolium bromide) is a soluble tetrazolium salt yielding a yellow solution when prepared in media or salt solutions lacking phenol red. Dissolved MIT is converted to an insoluble purple formazan by cleavage of the tetrazolium ring by dehydrogenase enzymes. This water insoluble formazan can be solubilized using isopropanol or other solvents and the dissolved material is measured spectrophotometrically. The absorbance was measured as a function of concentration of converted dye. The conversion of the soluble dye to the insoluble purple formazan is utilized in assays for measurement of cell proliferation. […] We used this assay to measure the degree of cell death caused by the peptides.
CT26 and A20 were maintained in RPMI-1640 medium supplemented with 10% heat inactivated FBS and 1% L-glutamine in a humidified atmosphere of 5% CO2 at 37° C. The human embryonic fibroblast cell line, MRC-5, was cultured as a monolayer in MEM medium, under the same conditions as described for the tumour cell lines. CT26 and MRC-5 cells to be used in the assay were grown to a minimum of 75% confluency, trypsinated and split to single cell suspension, counted and centrifuged at 1500 rpm for 7 min. The cell pellet was resuspended to a concentration of 1-2×10^5 cells/ml in RPMI-1640 medium without FBS and L-glutamine-L-alanine (assay-medium). The A20 cells were grown in suspension and adjusted to a concentration of 6×10^5 cells/ml in assay medium. All cell lines were routinely tested for mycoplasma infection using a PCR-based mycoplasma detection kit (MycoSensor PCR Assay Kit, Stratagene), following the supplier's instructions. All cell lines were mycoplasma free.
The cytotoxicity was measured using the MTT method (Mosmann, 1983), with minor modifications. The adherent cells (CT26 and MRC-5) were applied in 96-well culture plates in a volume of 100 μl assay medium and incubated at 37° C. for 24 hours. The A20 cells were applied to the microtiter plates just prior to testing. The medium was removed and the cells were treated with 100 μl of peptide solution (concentrations ranging from 0 to 400 μg/ml), diluted in serum-free medium, and the plates were incubated at 37° C. for 4 hours. Cells treated with Triton X-100 (1%) were used as positive control (100% killing) whereas cells plus medium only were used as negative control. Following the incubation period, 10 and 20 μl MTT (5 mg/ml, dissolved in PBS) were added to each well in the adherent cells (CT26 and MRC-5) and the A20 cells, respectively. After further incubation for 2 hours, a volume of 70 μl of the supernatant was removed and 100 μl acid alcohol (0.04 M HCl in isopropanol) added to each well in the adherent cell lines. For the cells grown in suspension (A20), a volume of 130 μl of the supernatant was removed and 100 μl acid alcohol was added. The plates were placed on a shaker for 1 hour at room temperature and read spectrophotometrically at 590 nm in a microtiter plate reader (Thermomax Molecular devices, New Jersey, USA). Cell survival (%, averaging at least 2 parallels) and IC50 values were estimated as described above.

Values after ≈ are worked out from the molar mass of the structure shown. Residues, ends and D or L forms follow the SMILES beside them. No end group written: not given here.

Broadly, the IC50 is the concentration that inhibits the measured activity by half. A lower IC50 goes with inhibition by little substance.

With `CC[C@H](C)[C@H](NC(=O)CNC(=O)[C@H](CO)NC(=O)[C@H](CCCCN)NC(=O)[C@@H](NC(=O)[C@H](C)NC(=O)[C@H](Cc1c[nH]cn1)NC(=O)[C@H](CO)NC(=O)[C@@H](NC(=O)[C@H](CCCCN)NC(=O)[C@H](Cc1c[nH]cn1)NC(=O)[C@H](Cc1ccccc1)NC(=O)[C@@H](NC(=O)[C@H](CCCCN)NC(=O)[C@H](CCCCN)NC(=O)[C@H](Cc1ccccc1)NC(=O)C(Cc1c[nH]c2ccc(Br)cc12)NC(=O)CN)[C@@H](C)O)C(C)C)C(C)C)C(=O)N[C@@H](Cc1c[nH]cn1)C(=O)N[C@@H](C)C(=O)NCC(=O)N[C@@H](CCC(N)=O)C(=O)N[C@@H](CCCNC(=N)N)C(=O)NCC(=O)N[C@@H](CS)C(=O)N[C@@H](CO)C(=O)N[C@@H](C)C(=O)N[C@@H](CC(C)C)C(=O)NCC(=O)N[C@@H](Cc1ccccc1)C(=O)O` (stereo partly drawn) [P17 HC-Br] (HELM PEPTIDE1{G.[O=C(C(Cc1c[nH]c2ccc(Br)cc12)N[*:1])[*:2]].F.K.K.T.F.H.K.V.S.H.A.V.K.S.G.I.H.A.G.Q.R.G.C.S.A.L.G.F}$$$$V2.0), in assay [1], the “Minimal inhibitory concentration, Escherichia coli, ATCC 25922” value amounted to 6.25 µM (≈ 20.8 µg/mL). In assay [2], the “Minimal inhibitory concentration, Pseudomonas aeruginosa ATCC 27853” value amounted to 6.25 µM (≈ 20.8 µg/mL). In assay [3], the half-inhibitory concentration (IC50) came out at 24.1 µM.

For GWFKKTFHKVSHAVKSGIHAGQRGCSALGF [P17 HC], in assay [1], the “Minimal inhibitory concentration, Escherichia coli, ATCC 25922” value worked out at 6.25 µM. Moreover, the “Minimal inhibitory concentration, Pseudomonas aeruginosa ATCC 27853” value in assay [2] is 6.25 µM. The compound further came in with an IC50 in assay [3] of 3.9 µM.

Source of the values: patent US20100093642A1, “NOVEL POLYPEPTIDES” (priority 2006, published 2010).
